We go through 24 compounds from patent US20170276611A1, “CHALCOGENOPYRYLIUM DYES, COMPOSITIONS COMPRISING SAME, COMPOSITE NANOPARTICLES COMPRISING SAME, AND METHODS OF MAKING AND USING THE SAME” (The Research Foundation for The State University of New York, priority 2014, published 2017).

The nature of the series: UV/VIS-near-IR absorption of the dyes. The series is classed as physicochemical. The settings on record: for ε (CH2Cl2): molar extinction coefficient in CH2Cl2. The protocol:
Synthetic Methods. All reactions were performed open to air unless otherwise noted. Concentration in vacuo was performed on a rotary evaporator. NMR spectra were recorded at 300 or 500 MHz for ^1H and at 75.5 MHz for ^13C with residual solvent signal as internal standard. UV/VIS-near-IR spectra were recorded in quartz cuvettes with a 1-cm path length. Melting points were determined with a capillary melting point apparatus and are uncorrected. […] Pyranones 16b-16d are known compounds (J. Heterocycl. Chem. 1999, 36, 707-717). The synthesis of thiopyranone 16a and 4-methylpyrylium salt 15c is shown in Scheme 2. 4-Methylpyrylium salts 15a, 15d, and 15e have been reported previously in the literature (J. Org. Chem. 1982, 47, 5235-5239; Organometallics 1988, 7, 1131-1147; Dyes Pigm. 2000, 45, 1-7).

Where [1] appears, read: Table 2, Example 2 dyes, CH2Cl2.

`C(=C1C=C(c2ccccc2)SC(c2ccccc2)=C1)c1cc(-c2cccs2)[s+]c(-c2cccs2)c1.F[P-](F)(F)(F)(F)F` [Dye 1]: the “ε (CH2Cl2)” value is 130000 M⁻¹ cm⁻¹. Further, under “absorption maximum in CH2Cl2”, the “λmax (CH2Cl2)” value is 653 nm.

In the case of `C(=Cc1cc(-c2ccccc2)[se+]c(-c2ccccc2)c1)C=C1C=C(c2ccccc2)SC(c2ccccc2)=C1.F[P-](F)(F)(F)(F)F` [Dye 1b, 4-(3-(2,6-diphenyl-4H-thiopyran-4-ylidene)prop-1-enyl)-2,6-diphenylselenopyrylium hexafluorophosphate], the “Log (ε)” value (Table 2, Example 2 dyes) was found to be 5.30. Further, under setting [1], the “λmax (CH2Cl2)” value was 784 nm. Take `C(=C1C=C(c2ccccc2)[Se]C(c2ccccc2)=C1)c1cc(-c2cccs2)[s+]c(-c2cccs2)c1.F[P-](F)(F)(F)(F)F` [Dye 2, 4-((2,6-diphenyl-4H-selenopyran-4-ylidene)methyl)-2,6-di(thiophen-2-yl)thiopyrylium hexafluorophosphate]: the “ε (CH2Cl2)” value amounted to 130000 M⁻¹ cm⁻¹. Besides, the “λmax (CH2Cl2)” value (absorption maximum in CH2Cl2) turned out to be 676 nm.

Turning to `C(=Cc1cc(-c2ccccc2)[se+]c(-c2ccccc2)c1)C=C1C=C(c2cccs2)SC(c2cccs2)=C1.F[P-](F)(F)(F)(F)F` [Dye 2a, 4-(3-(2,6-dithiophen-2-yl-4H-thiopyran-4-ylidene)prop-1-enyl)-2,6-diphenylselenopyrylium hexafluorophosphate], the “Log (ε)” value (Table 2, Example 2 dyes) was 5.40. Besides, the “λmax (CH2Cl2)” value under setting [1] worked out at 810 nm.

On to `C(=Cc1cc(-c2ccccc2)[s+]c(-c2ccccc2)c1)C=C1C=C(c2cccs2)SC(c2cccs2)=C1.F[P-](F)(F)(F)(F)F` [Dye 2b, 4-(3-(2,6-dithiophen-2-yl-4H-thiopyran-4-ylidene)prop-1-enyl)-2,6-diphenylthiopyrylium hexafluorophosphate], for which the “Log (ε)” value (Table 2, Example 2 dyes) turned out to be 5.34. Besides, the “λmax (CH2Cl2)” value under setting [1] turned out to be 789 nm. On the same counts, the results for `C(=Cc1cc(-c2cccs2)[s+]c(-c2cccs2)c1)C=C1C=C(c2cccs2)SC(c2cccs2)=C1.F[P-](F)(F)(F)(F)F` [Dye 3, 4-(3-(2,6-dithiophen-2-yl-4H-thiopyran-4-ylidene)prop-1-enyl)-(2,6-dithiophen-2-yl)thiopyrylium hexafluorophosphate] are 5.45 and 813 nm. With `C(=C1C=C(c2ccccc2)[Se]C(c2ccccc2)=C1)c1cc(-c2cccs2)[se+]c(-c2cccs2)c1.F[P-](F)(F)(F)(F)F` [Dye 3, 4-((2,6-diphenyl-4H-selenopyran-4-ylidene)methyl)-2,6-di(thiophen-2-yl)selenopyrylium hexafluorophosphate], the “ε (CH2Cl2)” value amounted to 150000 M⁻¹ cm⁻¹. Also, the “λmax (CH2Cl2)” value (absorption maximum in CH2Cl2) is recorded as 699 nm. On the same counts, the results for `C(=C1C=C(c2cccs2)SC(c2cccs2)=C1)c1cc(-c2cccs2)[s+]c(-c2cccs2)c1.F[P-](F)(F)(F)(F)F` [Dye 4, 4-((2,6-di(thiophen-2-yl)-4H-thiopyran-4-ylidene)methyl)-2,6-di(thiophen-2-yl)thiopyrylium hexafluorophosphate] are 120000 M⁻¹ cm⁻¹ and 676 nm.

Take `C(=C1C=C(c2cccs2)SC(c2cccs2)=C1)c1cc(-c2cccs2)[se+]c(-c2cccs2)c1.F[P-](F)(F)(F)(F)F` [Dye 5, 4-((2,6-di(thiophen-2-yl)-4H-thiopyran-4-ylidene)methyl)-2,6-di(thiophen-2-yl)selenopyrylium hexafluorophosphate]: the “ε (CH2Cl2)” value worked out at 110000 M⁻¹ cm⁻¹. The “λmax (CH2Cl2)” value (absorption maximum in CH2Cl2) came to 698 nm. Regarding `C(=C1C=C(c2cccs2)[Se]C(c2cccs2)=C1)c1cc(-c2cccs2)[se+]c(-c2cccs2)c1.F[P-](F)(F)(F)(F)F` [Dye 6, 4-((2,6-di(thiophen-2-yl)-4H-selenopyran-4-ylidene)methyl)-2,6-di(thiophen-2-yl)selenopyrylium hexafluorophosphate], the “ε (CH2Cl2)” value turned out to be 130000 M⁻¹ cm⁻¹. In addition, the “λmax (CH2Cl2)” value (absorption maximum in CH2Cl2) amounted to 724 nm. For the compound `C(=C1C=C(c2ccccc2)SC(c2ccccc2)=C1)c1cc(-c2ccc[se]2)[s+]c(-c2ccc[se]2)c1.F[P-](F)(F)(F)(F)F` [Dye 7, 4-((2,6-diphenyl-4H-thiopyran-4-ylidene)methyl)-2,6-di(selenophen-2-yl)thiopyrylium hexafluorophosphate], the “ε (CH2Cl2)” value was 140000 M⁻¹ cm⁻¹. Further, the “λmax (CH2Cl2)” value (absorption maximum in CH2Cl2) stood at 659 nm.

`C(=C1C=C(c2ccc[se]2)SC(c2ccc[se]2)=C1)c1cc(-c2ccc[se]2)[s+]c(-c2ccc[se]2)c1.F[P-](F)(F)(F)(F)F` [Dye 8, 4-((2,6-di(selenophen-2-yl)-4H-thiopyran-4-ylidene)methyl)-2,6-di(selenophen-2-yl)thiopyrylium hexafluorophosphate]: the “ε (CH2Cl2)” value amounted to 110000 M⁻¹ cm⁻¹. Moreover, the “λmax (CH2Cl2)” value (absorption maximum in CH2Cl2) came to 687 nm. For `C(=Cc1cc(-c2ccccc2)[se+]c(-c2ccccc2)c1)C=C1C=C(c2ccccc2)[Se]C(c2ccccc2)=C1.F[P-](F)(F)(F)(F)F` [Dye 9, 4-(3-(2,6-diphenyl-4H-selenopyran-4-ylidene)prop-1-enyl)-2,6-diphenylselenopyrylium hexafluorophosphate] the same measures were 250000 M⁻¹ cm⁻¹ and 806 nm. For the compound `C(=Cc1cc(-c2ccccc2)[se+]c(-c2ccccc2)c1)C=C1C=C(c2ccccc2)SC(c2ccccc2)=C1.F[P-](F)(F)(F)(F)F` [Dye 10, 4-(3-(2,6-diphenyl-4H-thiopyran-4-ylidene)prop-1-enyl)-2,6-diphenylselenopyrylium hexafluorophosphate], the “ε (CH2Cl2)” value came to 200000 M⁻¹ cm⁻¹. Also, for the setting “absorption maximum in CH2Cl2”, the “λmax (CH2Cl2)” value turned out to be 784 nm.

For the compound `C(=Cc1cc(-c2ccccc2)[se+]c(-c2ccccc2)c1)C=C1C=C(c2cccs2)SC(c2cccs2)=C1.F[P-](F)(F)(F)(F)F` [Dye 11, 4-(3-(2,6-dithiophen-2-yl-4H-thiopyran-4-ylidene)prop-1-enyl)-2,6-diphenylselenopyrylium hexafluorophosphate], the “ε (CH2Cl2)” value is 250000 M⁻¹ cm⁻¹. Besides, the “λmax (CH2Cl2)” value (absorption maximum in CH2Cl2) was 810 nm.

Regarding `C(=Cc1cc(-c2ccccc2)[s+]c(-c2ccccc2)c1)C=C1C=C(c2cccs2)SC(c2cccs2)=C1.F[P-](F)(F)(F)(F)F` [Dye 12, 4-(3-(2,6-dithiophen-2-yl-4H-thiopyran-4-ylidene)prop-1-enyl)-2,6-diphenylthiopyrylium hexafluorophosphate], the “ε (CH2Cl2)” value came out at 220000 M⁻¹ cm⁻¹. Moreover, the “λmax (CH2Cl2)” value (absorption maximum in CH2Cl2) came out at 789 nm.

Consider `C(=Cc1cc(-c2cccs2)[s+]c(-c2cccs2)c1)C=C1C=C(c2cccs2)SC(c2cccs2)=C1.F[P-](F)(F)(F)(F)F` [Dye 13, 4-(3-(2,6-dithiophen-2-yl-4H-thiopyran-4-ylidene)prop-1-enyl)-(2,6-dithiophen-2-yl)thiopyrylium hexafluorophosphate], for which the “ε (CH2Cl2)” value worked out at 280000 M⁻¹ cm⁻¹. For the same compound, under “absorption maximum in CH2Cl2”, the “λmax (CH2Cl2)” value is 813 nm.

For the compound `C(=Cc1cc(-c2ccc[se]2)[s+]c(-c2ccc[se]2)c1)C=C1C=C(c2ccc[se]2)SC(c2ccc[se]2)=C1.F[P-](F)(F)(F)(F)F` [Dye 14, 4-(3-(2,6-di(selenophen-2-yl)-4H-thiopyran-4-ylidene)prop-1-en-1-yl)-2,6-di(selenophen-2-yl)thiopyrylium hexafluorophosphate], the “ε (CH2Cl2)” value is 230000 M⁻¹ cm⁻¹. Further, for the setting “absorption maximum in CH2Cl2”, the “λmax (CH2Cl2)” value came out at 826 nm. On the same counts, the results for `C1=C(c2ccccc2)Sc2ccccc2/C1=C/C=C/C1=CC(c2ccccc2)=[SH]c2ccccc21` [Dye 15, 2-phenyl-4-((E)-3-((E)-2-phenyl-4H-thiochromen-4-ylidene)prop-1-en-1-yl)thiochromenylium hexafluorophosphate] are 150000 M⁻¹ cm⁻¹ and 789 nm. For `C1=C(/C=C/C=C2\C=C(c3ccccc3)[Se]c3ccccc32)C=C(c2ccccc2)[SH]=C1c1ccccc1` [Dye 16, 4-(3-(2,6-diphenyl-4H-thiopyran-4-ylidene)prop-1-enyl)-2-phenylselenobenzopyrylium hexafluorophosphate] the same measures were 61000 M⁻¹ cm⁻¹ and 748 nm.

As for `C1=C(c2cccs2)[Se]c2ccccc2/C1=C/C1=CC(c2cccs2)=[SeH]c2ccccc21` [Dye 17, 2-(thiophene-2-yl)-4-((2-(thiophen-2-yl)-4H selenobenzopyran-4-ylidene)methyl)selenobenzopyrylium hexafluorophosphate], the “ε (CH2Cl2)” value is 78000 M⁻¹ cm⁻¹. Moreover, under “absorption maximum in CH2Cl2”, the “λmax (CH2Cl2)” value stood at 786 nm. For `C(/C=C/C=C/c1cc(-c2cccs2)[s+]c(-c2cccs2)c1)=C1C=C(c2cccs2)SC(c2cccs2)=C1` [Dye 18, 4-((1E,3E)-5-(2,6-di(thiophen-2-yl)-4H-thiopyran-4-ylidene)penta-1,3-dien-1-yl)-2,6-di(thiophen-2-yl)thiopyrylium], the “λmax (CH2Cl2)” value (absorption maximum in CH2Cl2) is 943 nm. The same measure, in the same setting: in the case of `C(/C=C/C=C/c1cc(-c2ccc[se]2)[se+]c(-c2ccc[se]2)c1)=C1C=C(c2ccc[se]2)[Se]C(c2ccc[se]2)=C1` [Dye 19, 4-((1E,3E)-5-(2,6-di(selenophen-2-yl)-4H-selenopyran-4-ylidene)penta-1,3-dien-1-yl)-2,6-di(selenophen-2-yl)selenopyrylium] it was 1001 nm. On to `ClC1=C(/C=C/c2cc(-c3ccccc3)[s+]c(-c3ccccc3)c2)CCC/C1=C\C=C1C=C(c2ccccc2)SC(c2ccccc2)=C1` [Dye 20, 4-((E)-2-((E)-2-chloro-3-(2-(2,6-diphenyl-4H-thiopyran-4-ylidene)ethylidene)cyclohex-1-en-1-yl)vinyl)-2,6-diphenylthiopyrylium hexafluorophosphate], for which the “ε (CH2Cl2)” value was found to be 100000 M⁻¹ cm⁻¹. Besides, the “λmax (CH2Cl2)” value (absorption maximum in CH2Cl2) amounted to 1042 nm.
